Measured values published in PubChem BioAssay AID2060498 (Molecular Pharmacology Branch, DTP, NCI, 2025).
Values joined by “and” are separate entries in the source; they are usually repeats but may differ in a detail not shown here. Equal entries are not always repeated.

Test system: 171881-019-R-J1-PDC tumor spheroids, viability
Experiment: Anticancer human tumor 171881-019-R-J1-PDC patient-derived invasive breast carcinoma cell line growth inhibition [GQUAD]
Details: spheroids with HUVEC and MSC; for viability, T/C: stronger effect = lower value
Text: DNA G-quadruplex Stabilizer Agents in Combinations in Complex Spheroids
A high-throughput screen of multi-cell type tumor spheroids was designed to identify active combinations of DNA G-quadruplex stabilizer agents and targeted small molecules. Complex spheroids include a stromal component modeled by human endothelial cells (HUVEC) and fibroblasts modeled by human mesenchymal stem cells (MSCs). The concentration ranges selected for each drug and investigational agent were based upon clinically achievable concentrations if the clinical Cmax of the agent was known.
Compounds. The drugs and investigational agents: pidnarulex (CX-5461; NSC782164), APTO-253 (NSC789042), BRACO-19 (NSC847499), peposertib (NSC802822), ceralasertib (NSC780249), elimusertib (NSC800525), camonsertib (NSC841442), AZD-1390 (NSC803789), olaparib (NSC753686), talazoparib (NSC767125), ART-558 (NSC835418), sotorasib (NSC818433), MRTX-1133 (NSC836407), SN-38 (NSC673596), topotecan (NSC609699), etoposide (NSC141540), doxorubicin (NSC123127), gemcitabine (NSC613327), 5-fluorouracil (NSC19893), paclitaxel (NSC125973), vemurafenib (NSC761431), panobinostat (NSC761190), R-306465 (JNJ-16241199; NSC773264), adavosertib (NSC754352), TP-3654 (NSC805149), carboplatin (NSC241240), KSQ-4279 (NSC840948), and staurosporine (NSC755774) were obtained from the National Cancer Institute (NCI) Developmental Therapeutics Program Chemical Repository (34). The FDA-approved anticancer drug set is available from the NCI Developmental Therapeutics Program. […] The stock solutions were prepared in dimethyl sulfoxide (DMSO, Sigma-Aldrich, St. Louis, MO, cat. D2650) at 800-fold the tested concentration and stored at -70 degrees C prior to their use. All drugs and investigational agents were tested over a range starting from a high concentration at or near the clinical Cmax and decreasing in half-log increments. If the clinical Cmax for an agent had not been determined, the highest concentration tested was 10 microM.
2.3 Cell Culture. All cells were maintained in an incubator at 37 degrees C and 5% CO2 with 95% humidity. The PDC lines were cultured according to standard operating procedures established by the NCI PDMR. All PDCs were thawed and cultured in Matrigel-coated flasks prepared with a working solution of 1X Ham's F-12 nutrient mix, without supplementation (Invitrogen, cat. 11765054), 100 U/mL penicillin-streptomycin (Invitrogen, cat. 15140122), and 2.5% Matrigel (Corning Inc., cat. 354248) for the first three passages. The 857933-349-R-J2-PDC line was cultured in 6C/Colon 1B media, which includes advanced DMEM/F-12 (Thermo Fisher Scientific, cat. 12634028), 10 mM HEPES (Thermo Fisher Scientific, cat. 15630080), 1X GlutaMAX supplement (Thermo Fisher Scientific, cat. 35050061), 0.1 mg/mL primocin (InvivoGen, cat. ant-pm-2), 10% defined fetal bovine serum, heat inactivated (HyClone Laboratories Inc., cat. SH30070.03HI), 50% L-WRN conditioned media (ATCC, cat. CRL-3276), 1.25 mM N-Acetyl-L-cysteine (Sigma-Aldrich, cat. A9165), 10 mM nicotinamide (Sigma-Aldrich, cat. N0636), 1X B-27 supplement (Thermo Fisher Scientific, cat. 17504044), 1X N-2 supplement (Thermo Fisher Scientific, cat. 17502048), 10 microM Y-27632 dihydrochloride (Tocris Bioscience, cat. 1254), and 50 ng/mL human EGF recombinant protein (Thermo Fisher Scientific, cat. PHG0311). The 485176-168-R4-J1-PDC line was cultured in Panc media, which includes all 6C/Colon 1B media components plus 100 ng/mL human FGF-10 (Thermo Fisher Scientific, cat. 100-26), 500 nM SB-431542 (Selleckchem, cat. S1067), and gastrin (Tocris, cat. 3006).
[…]
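Note: spheroids exposed to compounds for 7 days.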
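Throughout, for viability, T/C: 100% = DMSO vehicle control viability.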

## O=C(c1cc(Cc2n[nH]c(=O)c3ccccc23)ccc1F)N1CCN(C(=O)C2CC2)CC1 + CN(C)c1ccc(Nc2c3ccc(NC(=O)CCN4CCCC4)cc3nc3cc(NC(=O)CCN4CCCC4)ccc23)cc1
Curve of first compound, second compound 0.0316 µM
  IC50: > 10000 nM
Curve of first compound, second compound 0.1 µM
  IC50: > 10000 nM
Curve of first compound, second compound 0.316 µM
  IC50: > 10000 nM
Curve of first compound, second compound 1 µM
  IC50: < 31.6 nM
Curve of first compound, second compound 3.16 µM
  IC50: < 31.6 nM
Curve of first compound, second compound 10 µM
  IC50: < 31.6 nM
Second compound 0.0316 µM, first compound 0.0316 µM
  viability, T/C: 98.5%
Second compound 0.0316 µM, first compound 0.1 µM
  viability, T/C: 98.5%
Second compound 0.0316 µM, first compound 0.316 µM
  viability, T/C: 107%
Second compound 0.0316 µM, first compound 1 µM
  viability, T/C: 96.3%
Second compound 0.0316 µM, first compound 3.16 µM
  viability, T/C: 90.7%
Second compound 0.0316 µM, first compound 10 µM
  viability, T/C: 94.2%
Second compound 0.1 µM, first compound 0.0316 µM
  viability, T/C: 107%
Second compound 0.1 µM, first compound 0.1 µM
  viability, T/C: 95.4%
Second compound 0.1 µM, first compound 0.316 µM
  viability, T/C: 91.1%
Second compound 0.1 µM, first compound 1 µM
  viability, T/C: 109%
Second compound 0.1 µM, first compound 3.16 µM
  viability, T/C: 91.7%
Second compound 0.1 µM, first compound 10 µM
  viability, T/C: 86.3%
Second compound 0.316 µM, first compound 0.0316 µM
  viability, T/C: 86.5%
Second compound 0.316 µM, first compound 0.1 µM
  viability, T/C: 94.1%
Second compound 0.316 µM, first compound 0.316 µM
  viability, T/C: 80.3%
Second compound 0.316 µM, first compound 1 µM
  viability, T/C: 78.5%
Second compound 0.316 µM, first compound 3.16 µM
  viability, T/C: 82%
Second compound 0.316 µM, first compound 10 µM
  viability, T/C: 60.8%
Second compound 1 µM, first compound 0.0316 µM
  viability, T/C: 31.7%
Second compound 1 µM, first compound 0.1 µM
  viability, T/C: 19.5%
Second compound 1 µM, first compound 0.316 µM
  viability, T/C: 25.3%
Second compound 1 µM, first compound 1 µM
  viability, T/C: 18.4%
Second compound 1 µM, first compound 3.16 µM
  viability, T/C: 20.2%
Second compound 1 µM, first compound 10 µM
  viability, T/C: 17.3%
Second compound 3.16 µM, first compound 0.0316 µM
  viability, T/C: 1.55%
Second compound 3.16 µM, first compound 0.1 µM
  viability, T/C: 1.44%
Second compound 3.16 µM, first compound 0.316 µM
  viability, T/C: 1.96%
Second compound 3.16 µM, first compound 1 µM
  viability, T/C: 1.41%
Second compound 3.16 µM, first compound 3.16 µM
  viability, T/C: 1.97%
Second compound 3.16 µM, first compound 10 µM
  viability, T/C: 1.2%
Second compound 10 µM, first compound 0.0316 µM
  viability, T/C: 0.28%
Second compound 10 µM, first compound 0.1 µM
  viability, T/C: 0.36%
Second compound 10 µM, first compound 0.316 µM
  viability, T/C: 0.35%
Second compound 10 µM, first compound 1 µM
  viability, T/C: 0.57%
Second compound 10 µM, first compound 3.16 µM
  viability, T/C: 0.69%
Second compound 10 µM, first compound 10 µM
  viability, T/C: 0.32%

## Cc1[nH]c2ccc(F)cc2c1-c1nc2c3cccnc3c3ncccc3c2[nH]1
Compound 0.0316 µM
  viability, T/C: 101% [middle of 12 runs]
Compound 0.1 µM
  viability, T/C: 103% [middle of 12 runs]
Compound 10 µM
  viability, T/C: 54.6% [middle of 12 runs]
Compound alone, run of 02/20/2024
  IC50: 2.63 µM [middle of 8 runs]
Compound alone, run of 02/26/2024
  IC50: 1.65 µM [middle of 4 runs]

## COc1ncnc(C2CC2)c1-c1ncc2cnn(Cc3ccc(-c4nc(C(F)(F)F)cn4C(C)C)cc3)c2n1
Compound 0.0316 µM
  viability, T/C: 94% and 84.8% and 93.3%
Compound 0.1 µM
  viability, T/C: 89.3% and 100% and 93.7%
Compound 0.316 µM
  viability, T/C: 85.2% and 92.9% and 94%
Compound 1 µM
  viability, T/C: 100% and 95.7% and 106%
Compound 3.16 µM
  viability, T/C: 91.3% and 98.7% and 97.9%
Compound 10 µM
  viability, T/C: 76.1% and 90.1% and 79.6%
Curve of compound
  IC50: > 10000 nM

## CC(C)(O)C1CCC(Nc2ccc3ncc(-c4cccc(C(F)(F)F)c4)n3n2)CC1 (stereo unspecified)
Compound 0.0316 µM
  viability, T/C: 94.5% and 97.7% and 83.7%
Compound 0.1 µM
  viability, T/C: 103% and 88.9% and 87.9%
Compound 0.316 µM
  viability, T/C: 90% and 92.4% and 78.3%
Compound 1 µM
  viability, T/C: 74.2% and 75.5% and 74.3%
Compound 3.16 µM
  viability, T/C: 25.5% and 27.5% and 22.3%
Compound 10 µM
  viability, T/C: 33.8% and 31.2% and 26.3%
Curve of compound
  IC50: 1870 nM and 1890 nM and 1750 nM
